Test results published in US9115143B2, “Substituted indole derivatives as gamma secretase modulators” (Janssen Pharmaceuticals, Inc., priority 2011, dated 2015).

Legend:
[1] = tested on: Aβ42; assay: Screening for γ-secretase-modulating activity: Aβ42 in supernatant of SKNBE2 cells carrying hAPP 695 wild type (Alphalisa); assay type: cell-based, human; conditions: overnight incubation, Alphalisa on supernatant
Procedure: (§1) Pharmacology A) Screening of the Compounds of the Invention for γ-Secretase-Modulating Activity
(§2) Screening was carried out using SKNBE2 human neuroblastoma cells carrying the hAPP 695—wild type, grown in Dulbecco's Modified Eagle's Medium/Nutrient mixture F-12 (DMEM/NUT-mix F-12) (HAM) provided by Invitrogen (cat no. 10371-029) containing 5% Serum/Fe supplemented with 1% non-essential amino acids, 1-glutamine 2 mM, Hepes 15 mM, penicillin 50 U/mL (units/mL) en streptomycin 50 μg/mL. Cells were grown to near confluency.
(§3) The screening was performed using a modification of the assay as described in Citron et al (1997) Nature Medicine 3: 67. Briefly, cells were plated in a 384-well plate at 10^4 cells/well in Ultraculture (Lonza, BE12-725F) supplemented with 1% glutamine (Invitrogen, 25030-024), 1% non-essential amino acid (NEAA), penicillin 50 U/mL en streptomycin 50 μg/mL in the presence of test compound at different test concentrations. The cell/compound mixture was incubated overnight at 37° C., 5% CO2. The next day the media were assayed by two sandwich immuno-assays, for Aβ42 and Aβtotal.
(§4) Aβtotal and Aβ42 concentrations were quantified in the cell supernatant using the Aphalisa technology (Perkin Elmer). Alphalisa is a sandwich assay using biotinylated antibody attached to streptavidin coated donorbeads and antibody conjugated to acceptor beads. In the presence of antigen, the beads come into close proximity. The excitation of the donor beads provokes the release of singlet oxygen molecules that trigger a cascade of energy transfer in the acceptor beads, resulting in light emission. To quantify the amount of Aβ42 in the cell supernatant, monoclonal antibody specific to the C-terminus of Aβ42 (JRF/cAβ42/26) was coupled to the receptor beads and biotinylated antibody specific to the N-terminus of Aβ (JRF/AβN/25) was used to react with the donor beads. To quantify the amount of Aβ total in the cell supernatant, monoclonal antibody specific to the N-terminus of Aβ (JRF/AβN/25) was coupled to the receptor beads and biotinylated antibody specific to the mid region of Aβ (biotinylated 4G8) was used to react with the donor beads.
(§5) To obtain the values reported in Table 3, the data are calculated as percentage of the maximum amount of amyloid Beta 42 measured in the absence of the test compound. The sigmoidal dose response curves were analyzed using nonlinear regression analysis with percentage of the control plotted against the log concentration of the compound. A 4-parameter equation was used to determine the IC50.

[2] = tested on: Aβtotal; assay: Screening for γ-secretase-modulating activity: Aβtotal in supernatant of SKNBE2 cells carrying hAPP 695 wild type (Alphalisa); assay type: cell-based, human; conditions: overnight incubation, Alphalisa on supernatant
Procedure: as §1, §2, §3, §4, §5

[3] = SKNBE2 human neuroblastoma cells carrying hAPP 695 wild type
[4] = Homo sapiens, SKNBE2, SKNBE2 human neuroblastoma cells carrying hAPP 695 wild type

Row | SMILES | IC50 [1, 3] [nM] | IC50 [2, 4] [nM] | IC50 [2, 3] [nM] | IC50 [1, 4] [nM]
1 | COc1c(C#N)ccc2[nH]c(-c3nc4n(n3)CCCOC4c3ccc(F)cc3C)cc12 (centres unmarked) [Compound 52, 2-[9-(4-fluoro-2-methylphenyl)-6,7-dihydro-5H,9H-[1,2,4]triazolo[5,1-c][1,4]oxazepin-2-yl]-4-methoxy-1H-indole-5-carbonitrile] | 44 | > 10000 |  | 
2 | COc1c(C#N)ccc2[nH]c(-c3nc4n(n3)CCCOC4c3ccc(F)cc3C)cc12 (centres unmarked) [Compound 54, 2-[9-(4-fluoro-2-methylphenyl)-6,7-dihydro-5H,9H-[1,2,4]triazolo[5,1-c][1,4]oxazepin-2-yl]-4-methoxy-1H-indole-5-carbonitrile] | 2340 |  | > 10000 | 
3 | COc1c(C#N)ccc2[nH]c(-c3nc4n(n3)CCN(C)C4c3ccc(F)cc3C)cc12 (centres unmarked) [Compound 58, 2-[8-(4-fluoro-2-methylphenyl)-5,6,7,8-tetrahydro-7-methyl[1,2,4]triazolo[1,5-a]pyrazin-2-yl]-4-methoxy-1H-indole-5-carbonitrile] |  | > 10000 |  | 49
4 | Cc1cn(-c2ccc3[nH]c(-c4nc5n(n4)CCCC5c4ccc(F)cc4C)cc3n2)cn1 (centres unmarked) [Compound 66, 8-(4-fluoro-2-methylphenyl)-5,6,7,8-tetrahydro-2-[5-(4-methyl-1H-imidazol-1-yl)-1H-pyrrolo[3,2-b]pyridin-2-yl]-[1,2,4]triazolo[1,5-a]pyridine] | 447 |  | > 10000 | 
5 | Cc1cc(F)ccc1C1CCCn2nc(-c3cc4cc(C#N)ncc4[nH]3)nc21 (centres unmarked) [Compound 68, 2-[8-(4-fluoro-2-methylphenyl)-5,6,7,8-tetrahydro[1,2,4]triazolo[1,5-a]pyridin-2-yl]-1H-pyrrolo[2,3-c]pyridine-5-carbonitrile] |  | > 10000 |  | 316
6 | Cc1cc(F)ccc1C1CCCn2nc(-c3cc4nc(-c5cnn(C)c5)ccc4[nH]3)nc21 (centres unmarked) [Compound 70, 8-(4-fluoro-2-methylphenyl)-5,6,7,8-tetrahydro-2-[5-(1-methyl-1H-pyrazol-4-yl)-1H-pyrrolo[3,2-b]pyridin-2-yl]-[1,2,4]triazolo[1,5-a]pyridine] | 1000 |  | > 10000 | 
7 | Cc1cc(F)ccc1C1CCCn2cc(-c3cc4nc(C#N)ccc4[nH]3)nc21 (centres unmarked) [Compound 75, 2-[8-(4-fluoro-2-methylphenyl)-5,6,7,8-tetrahydroimidazo[1,2-a]pyridin-2-yl]-1H-pyrrolo[3,2-b]pyridine-5-carbonitrile] |  | > 10000 |  | 174
8 | Cc1cc(F)ccc1C1CCCn2cc(-c3cc4nc(-c5cnn(C)c5)ccc4[nH]3)nc21 (centres unmarked) [Compound 85, 2-[8-(4-fluoro-2-methylphenyl)-5,6,7,8-tetrahydroimidazo[1,2-a]pyridin-2-yl]-5-(1-methyl-1H-pyrazol-4-yl)-1H-pyrrolo[3,2-b]pyridine] | 9120 | > 10000 |  | 
9 | Cc1cc(F)ccc1C1CCCn2cc(-c3cc4nc(-c5cnn(C)c5)ccc4[nH]3)nc21 (centres unmarked) [Compound 86, 2-[8-(4-fluoro-2-methylphenyl)-5,6,7,8-tetrahydroimidazo[1,2-a]pyridin-2-yl]-5-(1-methyl-1H-pyrazol-4-yl)-1H-pyrrolo[3,2-b]pyridine] | 112 |  | > 10000 | 
10 | COCc1ccccc1C1CCCn2nc(-c3cc4c(OC)c(C#N)ccc4[nH]3)nc21 (centres unmarked) [Compound 89, 4-methoxy-2-[5,6,7,8-tetrahydro-8-[2-(methoxymethyl)phenyl][1,2,4]triazolo[1,5-a]pyridin-2-yl]-1H-indole-5-carbonitrile] | 56 | > 10000 |  | 
11 | COCc1ccccc1C1CCCn2nc(-c3cc4c(OC)c(C#N)ccc4[nH]3)nc21 (centres unmarked) [Compound 90, 4-methoxy-2-[5,6,7,8-tetrahydro-8-[2-(methoxymethyl)phenyl][1,2,4]triazolo[1,5-a]pyridin-2-yl]-1H-indole-5-carbonitrile] | 40 |  | > 10000 | 
12 | COCc1ccccc1C1CCCn2nc(-c3cc4c(OC)c(C#N)ccc4[nH]3)nc21 (centres unmarked) [Compound 91, 4-methoxy-2-[5,6,7,8-tetrahydro-8-[2-(methoxymethyl)phenyl][1,2,4]triazolo[1,5-a]pyridin-2-yl]-1H-indole-5-carbonitrile] | 1200 |  | > 10000 | 
13 | Cc1cn(-c2ccc3cc(-c4nc5n(n4)CCCC5c4ccc(F)cc4C)[nH]c3c2)cn1 (centres unmarked) [Compound 93] |  | > 10000 |  | 1480
14 | Cc1cn(-c2ccc3[nH]c(-c4nc5n(n4)CCOC5c4ccc(F)cc4C)cc3n2)cn1 (centres unmarked) [Compound 94, 8-(4-fluoro-2-methylphenyl)-5,6-dihydro-2-[5-(4-methyl-1H-imidazol-1-yl)-1H-pyrrolo[3,2-b]pyridin-2-yl]-8H-[1,2,4]triazolo[5,1-c][1,4]oxazine] |  | 1820 |  | 170
15 | CCc1cc(F)ccc1C1OCCn2nc(-c3cc4cc(C#N)ccc4[nH]3)nc21 (centres unmarked) [Compound 95, 2-[8-(2-ethyl-4-fluorophenyl)-5,6-dihydro-8H-[1,2,4]triazolo[5,1-c][1,4]oxazin-2-yl]-1H-indole-5-carbonitrile] |  | > 10000 |  | 355
16 | Cc1cn(-c2ccc3[nH]c(-c4nc5n(n4)CCOC5c4ccc(F)c(F)c4C)cc3c2)cn1 (centres unmarked) [Compound 104, 8-(3,4-difluoro-2-methylphenyl)-5,6-dihydro-2-[5-(4-methyl-1H-imidazol-1-yl)-1H-indol-2-yl]-8H-[1,2,4]triazolo[5,1-c][1,4]oxazine] |  | > 10000 |  | 44
17 | Cc1cc(F)ccc1C1OCCn2nc(-c3cc4cc(-c5cnn(C)c5)ccc4[nH]3)nc21 (centres unmarked) [Compound 107, 8-(4-fluoro-2-methylphenyl)-5,6-dihydro-2-[5-(1-methyl-1H-pyrazol-4-yl)-1H-indol-2-yl]-8H-[1,2,4]triazolo[5,1-c][1,4]oxazine] |  | > 10000 |  | 148
18 | Cc1cc(-c2ccc3[nH]c(-c4nc5n(n4)CCOC5c4ccc(F)cc4C)cc3c2)ccn1 (centres unmarked) [Compound 108, 8-(4-fluoro-2-methylphenyl)-5,6-dihydro-2-[5-(2-methyl-4-pyridinyl)-1H-indol-2-yl]-8H-[1,2,4]triazolo[5,1-c][1,4]oxazine] |  | > 10000 |  | 40
19 | COc1c(C#N)ccc2[nH]c(-c3cn4c(n3)C(c3c(F)cccc3Cl)OCC4)cc12 (centres unmarked) [Compound 119, 2-[8-(2-chloro-6-fluorophenyl)-5,6-dihydro-8H-imidazo[2,1-c][1,4]oxazin-2-yl]-4-methoxy-1H-indole-5-carbonitrile] |  | > 10000 |  | 55
20 | COCc1ccccc1C1OCCn2cc(-c3cc4c(OC)c(C#N)ccc4[nH]3)nc21 (centres unmarked) [Compound 120, 2-[5,6-dihydro-8-[2-(methoxymethyl)phenyl]-8H-imidazo[2,1-c][1,4]oxazin-2-yl]-4-methoxy-1H-indole-5-carbonitrile] | 123 | > 10000 |  | 
21 | COc1c(C#N)ccc2[nH]c(-c3nc4n(n3)CCOC4c3cc(C(F)(F)F)ccc3F)cc12 (centres unmarked) [Compound 121, 2-[8-[2-fluoro-5-(trifluoromethyl)phenyl]-5,6-dihydro-8H-[1,2,4]triazolo[5,1-c][1,4]oxazin-2-yl]-4-methoxy-1H-indole-5-carbonitrile] |  | > 10000 |  | 110
22 | COc1c(C#N)ccc2[nH]c(-c3cn4c(n3)C(c3c(C)cccc3F)OCC4)cc12 (centres unmarked) [Compound 124, 2-[8-(2-fluoro-6-methylphenyl)-5,6-dihydro-8H-imidazo[2,1-c][1,4]oxazin-2-yl]-4-methoxy-1H-indole-5-carbonitrile] | 47 | > 10000 |  | 
23 | COc1c(C#N)ccc2[nH]c(-c3nc4n(n3)CCOC4c3c(F)cccc3C(F)(F)F)cc12 (centres unmarked) [Compound 125, 2-[8-[2-fluoro-6-(trifluoromethyl)phenyl]-5,6-dihydro-8H-[1,2,4]triazolo[5,1-c][1,4]oxazin-2-yl]-4-methoxy-1H-indole-5-carbonitrile] | 71 | > 10000 |  | 
24 | COc1c(C#N)ccc2[nH]c(-c3cn4c(n3)C(c3c(F)cccc3C(F)(F)F)OCC4)cc12 (centres unmarked) [Compound 126, 2-[8-[2-fluoro-6-(trifluoromethyl)phenyl]-5,6-dihydro-8H-imidazo[2,1-c][1,4]oxazin-2-yl]-4-methoxy-1H-indole-5-carbonitrile] | 55 | > 10000 |  | 
25 | COc1c(C#N)ccc2[nH]c(-c3nc4n(n3)CCOC4c3cccc(F)c3C)cc12 (centres unmarked) [Compound 127, 2-[8-(3-fluoro-2-methylphenyl)-5,6-dihydro-8H-[1,2,4]triazolo[5,1-c][1,4]oxazin-2-yl]-4-methoxy-1H-indole-5-carbonitrile] | 33 | > 10000 |  | 
